The source of these data is patent US8853424B2 (Japan Science and Technology Agency, priority 2008, dated 2014).

Molecules are shown by their SMILES. Read-outs that look alike come from different tables or passages of the source.

The test system of assay [1] is Truncated N-terminal huntington 150 Q-EGFP-Neuron 2a cells. As to the kind of experiment: Measurement of x-Fold (polyglutamine aggregation inhibitory activity). The class given is cell-based. The protocol: In the present invention, the polyglutamine aggregation inhibitory activity (x-Fold) can be measured, for example, by the method described in the Example.
The number of the aggregated cells, and the total number of cells were counted by Array Scan V T1 (manufactured by Cellomics, Pittuburg, USA), and the ratio of the aggregated cells to the total number of cells was determined (x-Fold). […]

For assay [2], the system named is SOC (store operated calcium channel). Description: Measurement of SOC IC50 (thapsigargin store depletion, calcium re-addition, CHO cells). It is filed as cell-based. The settings on record: read-out: SOC IC50. The procedure: The SOC (store operated calcium channel)-suppressive action can be measured by the method described in the Example and using, for example, FDSS 3000.
CHO cell culture medium was replaced with a BSS solution which is an extracellular fluidfree of calcium, the compound of the present invention was added 1 min later, and 1 μM thapsigargin was allowed to act thereon 2 min later to deplete intracellular calcium store. […]

For another assay, the system named is transglutaminase (TGase). Description: Measurement of TG (TGase inhibitory activity, monodansyl cadaverine / N,N-dimethylcasein fluorescence, FDSS 3000). The class given is biochemical. The procedure, abridged:
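Compound (1 μL of 10 mM stock) added to 0.1 mL reaction: 100 mM HEPES-NaOH pH 7.5, 1 mM CaCl2, 20 μM monodansyl cadaverine, 0.05 mg/mL N,N-dimethylcasein, 5 μg/mL TGase. Rate of fluorescence change at 340 nm measured; DMSO control set to 100; TG50 is the concentration halving activity.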

Where [3] appears, read: polyglutamine aggregation inhibitory activity, Table 1.
Where [4] appears, read: ratio of aggregated cells to total number of cells, compound 20 μM, 20 hr, almost 1 without compound, smaller = stronger inhibition.
The mark [5] stands for this setting: Cricetulus griseus, CHO, CHO cells, 1 μM thapsigargin, 2 mM calcium chloride.
Where [6] appears, read: Cricetulus griseus, CHO, Table 1.
The mark [7] stands for this setting: TGase activity with compound (10 mM, 1 μL in 0.1 ml enzyme reaction solution), DMSO control taken as 100.
[8] abbreviates: TGase inhibitory activity value, Table 1.
The mark [9] stands for this setting: polyglutamine aggregation, Truncated N-terminal huntington 150 Q-EGFP-Neuron 2a cells.
Setting [10] is: CHO cells, 1 μM thapsigargin, 2 mM calcium chloride.
Where [11] appears, read: TGase inhibitory activity measurement, unit not given.

The IC50 is the concentration needed to halve the response being measured. `Cc1ccc(B(OC(=O)C(N)CN)c2ccc(C)c(Cl)c2)cc1Cl` (centres unmarked) [Example 71, di(3-chloro-4-methylphenyl)(2,3-diaminopropionate-O,N)borane]: the x-Fold in assay [1] (setting [3]) and in assay [1] (setting [4]) was 0.97 each time. For the same compound, the IC50 in assay [2] (setting [5]) and in assay [2] (setting [6]) was 1 µM throughout. For the same compound, the “TGase activity remaining (% of DMSO control = 100)” value in the assay on transglutaminase (TGase) (setting [7]) and with transglutaminase (TGase) (setting [8]) was 51 in each case.
As to `NCCC(N)C(=O)OB(c1ccccc1)c1cccc(COCc2cccc(B(OC(=O)C(N)CCN)c3ccccc3)c2)c1` (centres unmarked) [Example 472, bis(3,3′-(phenyl-2,4-diaminobutyric acid boryl)benzyl)ether], the x-Fold in assay [1] (setting [9]) and in assay [1] (setting [4]) was 0.95 throughout. The IC50 in assay [2] (setting [10]) came out at 1 µM. For the same compound, the “TGase activity remaining (% of DMSO control = 100)” value in the assay on transglutaminase (TGase) (setting [7]) and in the assay on transglutaminase (TGase) (setting [11]) was 47 each time.
In the case of `CN(C)CCOB(c1ccccc1)c1cccc(COCc2cccc(B(OCCN(C)C)c3ccccc3)c2)c1` [Example 464, bis(3,3′-(phenyl-dimethylaminoethoxyboryl)benzyl)ether], the x-Fold in assay [1] (polyglutamine aggregation, Truncated N-terminal huntington 150 Q-EGFP-Neuron 2a cells, listed as 3021) came out at 0.76; in assay [1] (setting [4]), 0.76. For the same compound, in assay [2] (CHO cells, 1 μM thapsigargin, 2 mM calcium chloride, no unit printed), the half-maximal inhibitory concentration (IC50) was 0.8 µM. Also, the “TGase activity remaining (% of DMSO control = 100)” value in the assay on transglutaminase (TGase) (setting [7]) amounted to 41; in the assay on transglutaminase (TGase) (TGase inhibitory activity measurement, unit not given, listed as 3021) it was 41.
As to `CC(CNCCN)OB(c1ccccc1)c1cccc(COCc2cccc(B(OC(C)CNCCN)c3ccccc3)c2)c1` (centres unmarked) [Example 470, bis(3,3′-(phenyl-N-aminoethyl-1-methyl-2-aminoethoxyboryl)benzyl)ether], the x-Fold in assay [1] (setting [9]) and in assay [1] (setting [4]) was 1.02 in each case. The IC50 in assay [2] (setting [10]) is 0.3 µM. The “TGase activity remaining (% of DMSO control = 100)” value with transglutaminase (TGase) (setting [7]) and in the assay with transglutaminase (TGase) (setting [11]) was 19 in each case.
In the case of `NCCCC(N)C(=O)OB(c1ccccc1)c1cccc(COCc2cccc(B(OC(=O)C(N)CCCN)c3ccccc3)c2)c1` (centres unmarked) [Example 476, bis(3,3′-(phenyl-ornithineboryl)benzyl)ether], the x-Fold in assay [1] (setting [9]) and in assay [1] (setting [4]) was 0.95 each time. Also, the IC50 in assay [2] (setting [10]) worked out at 1.5 µM. Moreover, the “TGase activity remaining (% of DMSO control = 100)” value in the assay on transglutaminase (TGase) (setting [7]) and with transglutaminase (TGase) (setting [11]) was 103 each time.
As for `Cc1ccc(B(OCCN2CCCCC2)c2ccc(C)c(Cl)c2)cc1Cl` [Example 73, di(3-chloro-4-methylphenyl)piperidinoethoxyborane], the x-Fold in assay [1] (setting [3]) and in assay [1] (setting [4]) was 0.85 throughout. Besides, the IC50 in assay [2] (setting [5]) and in assay [2] (setting [6]) was 1.2 µM each time. In addition, the “TGase activity remaining (% of DMSO control = 100)” value with transglutaminase (TGase) (setting [7]) and with transglutaminase (TGase) (setting [8]) was 35 in each case.
With `OB(c1ccc(Oc2ccc(B(O)c3ccc(C(F)(F)F)cc3)cc2)cc1)c1ccc(C(F)(F)F)cc1` [Example 325, bis(4-(4-trifluoromethylphenylhydroxyboryl)phenyl)ether], the x-Fold in assay [1] (setting [3]) and in assay [1] (setting [4]) was 0.99 each time. Moreover, the IC50 in assay [2] (setting [5]) and in assay [2] (setting [6]) was 4 µM in each case. In addition, the “TGase activity remaining (% of DMSO control = 100)” value in the assay on transglutaminase (TGase) (setting [7]) and in the assay with transglutaminase (TGase) (setting [8]) was 92 throughout.
As to `Cc1ccc(B(SCCN)c2ccc(C)c(Cl)c2)cc1Cl` [Example 32, di(3-chloro-4-methylphenyl)-2-aminoethylthioborane], the x-Fold in assay [1] (setting [3]) and in assay [1] (setting [4]) was 1.02 in each case. In addition, the IC50 in assay [2] (setting [5]) and in assay [2] (setting [6]) was 1 µM each time. Further, the “TGase activity remaining (% of DMSO control = 100)” value in the assay on transglutaminase (TGase) (setting [7]) and with transglutaminase (TGase) (setting [8]) was 12 each time.
For the compound `c1ccc(B(OCC2CCCN2)c2ccc(COCc3ccc(B(OCC4CCCN4)c4ccccc4)cc3)cc2)cc1` (centres unmarked) [Example 452, bis(4,4′-(phenyl-2-pyrrolidinemethoxyboryl)benzyl)ether], the x-Fold in assay [1] (setting [9]) and in assay [1] (setting [4]) was 0.96 each time. Also, in assay [2] (setting [10]), the IC50 was 0.5 µM. In addition, the “TGase activity remaining (% of DMSO control = 100)” value with transglutaminase (TGase) (setting [7]) and in the assay with transglutaminase (TGase) (setting [11]) was 29 in each case.
Regarding `c1ccc(B(OCC2CCCN2)c2ccc(Oc3ccc(B(OCC4CCCN4)c4ccccc4)cc3)cc2)cc1` (centres unmarked) [Example 438, bis(4,4′-(phenyl-2-pyrrolidinemethoxyboryl)phenyl)ether], the x-Fold in assay [1] (setting [9]) and in assay [1] (setting [4]) was 0.67 in each case. The IC50 in assay [2] (setting [10]) is 2 µM. The “TGase activity remaining (% of DMSO control = 100)” value in the assay with transglutaminase (TGase) (setting [7]) and in the assay with transglutaminase (TGase) (setting [11]) was 29 each time.
`NC(=O)CC(N)C(=O)OB(c1ccc(COCc2ccc(B(OC(=O)C(N)CC(N)=O)c3ccc(C(F)(F)F)cc3)cc2)cc1)c1ccc(C(F)(F)F)cc1` (centres unmarked) [Example 185, bis(4,4′-(p-trifluoromethylphenyl-asparagineboryl)benzyl)ether]: the x-Fold in assay [1] (setting [4]) was determined as 0.94. The IC50 in assay [2] (setting [10]) is greater than 20 µM. In the assay on transglutaminase (TGase) (setting [7]), the “TGase activity remaining (% of DMSO control = 100)” value is listed as 130.
Turning to `O=C(OB(c1ccccc1)c1ccccc1)C1CC(O)CN1` (centres unmarked) [Example 268, diphenyl(hydroxyprolinate-O,N)borane], the x-Fold in assay [1] (setting [3]) and in assay [1] (setting [4]) was 0.96 each time. Also, the 50% inhibitory concentration (IC50) in assay [2] (setting [5]) and in assay [2] (setting [6]) was 5 µM in each case. For the same compound, the “TGase activity remaining (% of DMSO control = 100)” value with transglutaminase (TGase) (setting [7]) and in the assay with transglutaminase (TGase) (setting [8]) was 103 in each case.
Turning to `NC(=O)CCC(N)C(=O)OB(c1ccccc1)c1cccc(COCc2cccc(B(OC(=O)C(N)CCC(N)=O)c3ccccc3)c2)c1` (centres unmarked) [Example 471, bis(3,3′-(phenyl-glutamineboryl)benzyl)ether], the x-Fold in assay [1] (setting [9]) and in assay [1] (setting [4]) was 1.04 each time. In addition, the IC50 in assay [2] (setting [10]) was determined as 0.6 µM. Moreover, the “TGase activity remaining (% of DMSO control = 100)” value with transglutaminase (TGase) (setting [7]) and in the assay with transglutaminase (TGase) (setting [11]) was 52 in each case.
Consider `NC(=O)CC(N)C(=O)OB(c1ccccc1)c1cccc(COCc2cccc(B(OC(=O)C(N)CC(N)=O)c3ccccc3)c2)c1` (centres unmarked) [Example 404, bis(3,3′-(phenyl-asparagineboryl)benzyl)ether], for which the x-Fold in assay [1] (polyglutamine aggregation, Truncated N-terminal huntington 150 Q-EGFP-Neuron 2a cells, listed as 2023) is listed as 1.07; in assay [1] (setting [4]), 1.07. Besides, the IC50 turned out to be 4 µM in assay [2] (setting [5]) and 4 µM in assay [2] (Cricetulus griseus, CHO, CHO cells, thapsigargin store depletion). The “TGase activity remaining (% of DMSO control = 100)” value with transglutaminase (TGase) (setting [7]) is listed as 105; with transglutaminase (TGase) (TGase inhibitory activity measurement, unit not given, listed as 2023) it was 105.
Take `NC(=O)CC(N)C(=O)OB(c1ccccc1)c1ccccc1` (centres unmarked) [Example 270, diphenyl(asparaginate-O,N)borane]: the x-Fold in assay [1] (polyglutamine aggregation inhibitory activity, Table 1, listed as 855) is reported as 0.54; in assay [1] (setting [4]), 0.54. Moreover, the IC50 in assay [2] (setting [5]) and in assay [2] (setting [6]) was 0.7 µM throughout. Moreover, the “TGase activity remaining (% of DMSO control = 100)” value in the assay on transglutaminase (TGase) (setting [7]) was determined as 111; with transglutaminase (TGase) (TGase inhibitory activity value, Table 1, listed as 855) it was 111.
Turning to `Cc1ccc(B(OCCN2CCNCC2)c2ccc(C)c(Cl)c2)cc1Cl` [Example 72, di(3-chloro-4-methylphenyl)piperazinoethoxyborane], the x-Fold in assay [1] (setting [3]) and in assay [1] (setting [4]) was 1.02 in each case. The IC50 in assay [2] (setting [5]) and in assay [2] (setting [6]) was 0.5 µM throughout. Also, the “TGase activity remaining (% of DMSO control = 100)” value in the assay with transglutaminase (TGase) (setting [7]) and in the assay with transglutaminase (TGase) (setting [8]) was 41 in each case.
Regarding `NCCSB(c1ccccc1)c1ccc(Oc2ccc(B(SCCN)c3ccccc3)cc2)cc1` [Example 433, bis(4,4′-(phenyl-aminoethylthioboryl)phenyl)ether], the x-Fold in assay [1] (setting [9]) and in assay [1] (setting [4]) was 0.71 throughout. Moreover, in assay [2] (setting [10]), the concentration for half-maximal inhibition (IC50) stood at 0.5 µM. The “TGase activity remaining (% of DMSO control = 100)” value in the assay on transglutaminase (TGase) (setting [7]) and in the assay on transglutaminase (TGase) (setting [11]) was −5 in each case.
For the compound `OB(c1ccccc1)c1ccc(Oc2ccc(B(O)c3ccccc3)cc2)cc1` [Example 3, bis(4,4′-(phenylhydroxyboryl)phenyl)ether], the x-Fold in assay [1] (setting [3]) and in assay [1] (setting [4]) was 0.49 each time. In assay [2] (setting [10]), the half-maximal inhibitory concentration (IC50) is 0.5 µM. Further, the “TGase activity remaining (% of DMSO control = 100)” value in the assay with transglutaminase (TGase) (setting [7]) and in the assay with transglutaminase (TGase) (setting [8]) was −20 each time.
With `Cc1ccc(B(OCC2CCCCN2)c2ccc(COCc3ccc(B(OCC4CCCCN4)c4ccc(C)c(Cl)c4)cc3)cc2)cc1Cl` (centres unmarked) [Example 423, bis(4,4′-(3-chloro-4-methylphenyl-2-piperidylmethoxyboryl)benzyl)ether], the x-Fold in assay [1] (setting [9]) and in assay [1] (setting [4]) was 0.76 each time. Besides, the half-maximal inhibitory concentration (IC50) in assay [2] (setting [10]) worked out at 1.2 µM. In addition, the “TGase activity remaining (% of DMSO control = 100)” value with transglutaminase (TGase) (setting [7]) and in the assay with transglutaminase (TGase) (setting [11]) was 27 in each case.
